Data: US20210260141A1, “MSC- AND EXOSOME-BASED IMMUNOTHERAPY” (EXOSTEM BIOTEC LTD., priority 2018, published 2021)

B1: miR-34: microRNA; pre-miR SEQ ID NO: 10, mature 5p SEQ ID NO: 11, 3p SEQ ID NO: 12 (nucleic acid, listed as Homo sapiens)
chain: UGGCAGUGUCUUAGCUGGUUGUUGUGAGCAAUAGUAAGGAAGCAAUCAGCAAGUAUACUGCCCUA
modifications: expressed or natural sequence

Tests used:
Assay type in all cases: cell-based
glioma stem cells (GSCs) = assay: self-renewal of GSCs (secondary neurosphere formation) after coculture with MSCs or addition of their exosomes; conditions: trans-well coculture
3′ UTR of PD-L1 = assay: PD-L1 3′ UTR luciferase reporter in GSCs cocultured with MSCs or treated with their exosomes; conditions: pre-miR expressed in CH-, AD- and UC-MSCs, trans-well coculture with GSCs
PD-1 3′ UTR = PD-1 3′ UTR luciferase reporter in HEK293 cells; conditions: miR transfected in CH-MSCs; same whether cocultured or exosomes added
Method: PD-L1 is only half of the immune surveillance axis, its receptor PD-1 is expressed on immune cells and is required for cancer cell immune inhibition. […] CH-MSCs were also transfected with miR-124, miR-34, miR-30b and a combination of all three and then PD-1 expression was assessed. […] The effect was the same whether cells were cocultured, or whether exosomes were added. miR-34 has already been reported to target PD-L1, thus this miR and miR-124 are both effective at targeting both sides of the PD-L1/PD-1 axis.

[1] = miR expressed in CH- and UC-MSCs

| Molecule | effect on self-renewal of GSCs (glioma stem cells (GSCs); miR expressed in AD-MSCs) | effect on self-renewal of GSCs (glioma stem cells (GSCs); [1]) | luciferase expression (PD-L1 reporter) (3′ UTR of PD-L1) | effect on PD-1 reduction (luciferase reporter) (PD-1 3′ UTR) |
| --- | --- | --- | --- | --- |
| miR-29c: microRNA; pre-miR SEQ ID NO: 4, mature 5p SEQ ID NO: 5, 3p SEQ ID NO: 6 (ACCGAUUUCUCCUGGUGUUCAGAGUCUGUUUUUGUCUAGCACCAUUUGAAAUCGGUUA; expressed or natural sequence; listed as Homo sapiens) | more pronounced effect | negligible effect | decreased luciferase expression | – |
| miR-30b: microRNA; pre-miR SEQ ID NO: 13, mature 5p SEQ ID NO: 14, 3p SEQ ID NO: 15 (UGUAAACAUCCUACACUCAGCUGUAAUACAUGGAUUGGCUGGGAGGUGGAUGUUUACUUC; expressed or natural sequence; listed as Homo sapiens) | – | – | – | enhanced the PD-1 reduction |
| miR-378: microRNA; pre-miR SEQ ID NO: 32, mature 5p SEQ ID NO: 33, 3p SEQ ID NO: 34 (CUCCUGACUCCAGGUCCUGUGUGUUACCUAGAAAUAGCACUGGACUUGGAGUCAGAAGGC; expressed or natural sequence; listed as Homo sapiens) | more pronounced effect | negligible effect | decreased luciferase expression | – |
| B1 | – | – | – | enhanced the PD-1 reduction |
